According to patent US7858635B2 (priority 2005, dated 2010):
Where two headings read alike, the source gives them in different places.

What was measured:
[1] = molecular target: T1, M1 muscarinic receptor (Homo sapiens, UniProt P11229); assay: Functional mobilization of intracellular calcium (FLIPR, Fluo-3), M1-CHO cells; assay type: cell-based; settings: for Emax: read-out: M1 Efficacy
T1 construct: expressed in transfected cells; host or cells: CHO cells (M1-CHO, under zeocin and G418 selection)
T1 sequence (P11229 1-460): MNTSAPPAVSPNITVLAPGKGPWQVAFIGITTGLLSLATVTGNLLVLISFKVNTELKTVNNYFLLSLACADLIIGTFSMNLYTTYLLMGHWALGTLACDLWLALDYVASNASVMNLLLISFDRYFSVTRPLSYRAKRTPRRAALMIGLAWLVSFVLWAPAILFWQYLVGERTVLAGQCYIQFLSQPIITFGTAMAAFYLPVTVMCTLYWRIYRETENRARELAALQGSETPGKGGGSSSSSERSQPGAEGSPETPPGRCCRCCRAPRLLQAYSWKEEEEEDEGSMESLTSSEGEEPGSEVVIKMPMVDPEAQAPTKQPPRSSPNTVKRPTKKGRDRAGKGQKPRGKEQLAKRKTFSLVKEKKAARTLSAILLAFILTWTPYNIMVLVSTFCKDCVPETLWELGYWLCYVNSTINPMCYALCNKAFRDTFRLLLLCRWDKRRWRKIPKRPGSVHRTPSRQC
Summary of the method: (§1)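 Fluo-3 read-out, ex 488/em 540 nm, 60 sec on FLIPR 3. For agonist mode, compound added directly; for inhibition, 15 min compound pre-incubation before carbachol at EC80 (added as a 3× solution), or co-application. Buffer pH 7.4 with 1 mM probenecid; DMSO 0.5%.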

[2] = molecular target: T2, M4 muscarinic receptor (Homo sapiens, UniProt P08173); assay: Functional mobilization of intracellular calcium (FLIPR, Fluo-3), M4-CHO cells; assay type: cell-based; settings: for Emax: read-out: M4 Efficacy
T2 construct: expressed in transfected cells; host or cells: CHO cells (M4-CHO, under puromycin, zeocin and blasticidin selection)
T2 sequence (P08173 1-479): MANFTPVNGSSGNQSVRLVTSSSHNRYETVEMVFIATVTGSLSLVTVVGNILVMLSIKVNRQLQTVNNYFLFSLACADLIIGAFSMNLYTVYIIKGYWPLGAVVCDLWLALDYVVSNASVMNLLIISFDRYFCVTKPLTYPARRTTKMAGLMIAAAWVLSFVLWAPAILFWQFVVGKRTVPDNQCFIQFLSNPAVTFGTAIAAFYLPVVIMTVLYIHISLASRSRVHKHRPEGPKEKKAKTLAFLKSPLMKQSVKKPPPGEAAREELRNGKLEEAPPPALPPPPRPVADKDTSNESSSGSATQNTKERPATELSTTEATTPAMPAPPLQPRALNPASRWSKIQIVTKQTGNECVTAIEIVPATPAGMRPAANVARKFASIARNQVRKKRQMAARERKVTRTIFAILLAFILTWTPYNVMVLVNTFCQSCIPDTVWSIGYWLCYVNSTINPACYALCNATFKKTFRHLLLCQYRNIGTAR
Summary of the method: as §1

[3] = compound nos. 1-454, 100% efficacy is the maximum response obtained with the Carbachol control
[4] = compound nos. 1-454, M1-CHO cells, calcium mobilization
[5] = compound nos. 1-454, M4-CHO cells, calcium mobilization
[6] = compound nos. 455-509, 100% efficacy is the maximum response obtained with the Carbachol control

Question: With CC(=O)N1CC2(CCN(C3CC4CCC(C3)N4C(=O)O[C@@H]3CCOC3)CC2)c2cc(F)ccc21 (some centres unmarked) [compound 67] as the molecule, how does the Emax [1, 3] read?
Answer: < 65%

Question: What about the “M1 Activity” value [1, 4] of the same molecule?
Answer: +++ (activity was measured to be less than or equal to 0.7 μM)

Question: And the Emax [2, 3]?
Answer: < 55%

Question: What about the “M4 Activity” value [2, 5] of the same molecule?
Answer: ++ (activity was measured to be between 0.1 μM and 4.0 μM)

Question: How did the “M1 Efficacy” value [1, 3] turn out when Cc1ccc2c(c1)C1(CCN([C@@H]3C[C@@H]4CC[C@@H]3C4)CC1)CN2 [compound 23] was run?
Answer: + (efficacy was calculated to be 65% or less)

Question: And the “M1 Activity” value [1, 4]?
Answer: ++ (activity was measured to be between 0.7 μM and 3.0 μM)

Question: What about the “M4 Efficacy” value [2, 3] of the same molecule?
Answer: + (efficacy was calculated to be 55% or less)

Question: What about the “M4 Activity” value [2, 5] of the same molecule?
Answer: + (activity was measured to be greater than or equal to 4.0 μM)

Question: For Cc1ccc2c(c1)C1(CCN(C3CC4CCC3C4)CC1)CN2C(=O)c1cc(C)n(C)n1 (centres unmarked) [compound 211], which Emax [1, 3] is on record?
Answer: 65 to 85%

Question: And the “M1 Activity” value [1, 4]?
Answer: + (activity was measured to be greater than or equal to 3.0 μM)

Question: What about the Emax [2, 3] of the same molecule?
Answer: < 55%

Question: And the “M4 Activity” value [2, 5]?
Answer: + (activity was measured to be greater than or equal to 4.0 μM)

Question: Which “M1 Activity” value ([1]; compound nos. 1-454) does the source give for CCOC(=O)N1C2CCC1CC(N1CCC3(CC1)CN(C(C)=O)c1ccc(Cl)cc13)C2 (centres unmarked) [compound 417] here?
Answer: ++ (activity was measured to be between 0.7 μM and 3.0 μM)

Question: And the Emax [1, 3]?
Answer: < 65%

Question: What about the “M4 Activity” value ([2]; compound nos. 1-454) of the same molecule?
Answer: + (activity was measured to be greater than or equal to 4.0 μM)

Question: And the Emax [2, 3]?
Answer: < 55%

Question: CCOC(=O)N1CCC(N2CCC3(CC2)CN(C(=O)OCCOC)c2ccc(F)cc23)CC1 [compound 38] was tested. Which Emax [1, 3] did it give?
Answer: > 85%

Question: And the “M1 Activity” value [1, 4]?
Answer: +++ (activity was measured to be less than or equal to 0.7 μM)

Question: And the Emax [2, 3]?
Answer: > 70%

Question: What about the “M4 Activity” value [2, 5] of the same molecule?
Answer: +++ (activity was measured to be less than or equal to 0.1 μM)

Question: Which results are given for COC(=O)N1CC2(CCN(C3CC4CCC(C3)N4C(=O)O[C@H]3CCOC3)CC2)c2cc(F)ccc21 (some centres unmarked) [compound 96]?
Answer: Emax [1, 3]: 65 to 85%; M1 Activity [1, 4]: ++ (activity was measured to be between 0.7 μM and 3.0 μM); Emax [2, 3]: < 55%; M4 Activity [2, 5]: + (activity was measured to be greater than or equal to 4.0 μM)

Question: With O=C(O[C@@H]1CCOC1)N1CC2(CCN(C3CC4CCC(C3)N4C(=O)O[C@@H]3CCOC3)CC2)c2cc(F)ccc21 (some centres unmarked) [compound 112] as the molecule, how does the Emax [1, 3] read?
Answer: 65 to 85%

Question: And the “M1 Activity” value [1, 4]?
Answer: +++ (activity was measured to be less than or equal to 0.7 μM)

Question: And the Emax [2, 3]?
Answer: < 55%

Question: What about the “M4 Activity” value [2, 5] of the same molecule?
Answer: ++ (activity was measured to be between 0.1 μM and 4.0 μM)

Question: What does the source list for CCOC(=O)N1C2CCC1CC(N1CCC3(CC1)CN(S(C)(=O)=O)c1ccc(F)cc13)C2 (centres unmarked) [compound 103]?
Answer: Emax [1, 3]: 65 to 85%; M1 Activity [1, 4]: +++ (activity was measured to be less than or equal to 0.7 μM); Emax [2, 3]: < 55%; M4 Activity [2, 5]: ++ (activity was measured to be between 0.1 μM and 4.0 μM)

Question: Which results are given for CC#CCOC(=O)N1CC2(CCN(C3CCN(C(=O)OCC)CC3)CC2)c2cc(F)ccc21 [compound 346]?
Answer: Emax [1, 3]: < 65%; M1 Activity [1, 4]: +++ (activity was measured to be less than or equal to 0.7 μM); Emax [2, 3]: < 55%; M4 Activity [2, 5]: + (activity was measured to be greater than or equal to 4.0 μM)

Question: With CCOC(=O)N1CCC(N2CCC3(CC2)CN(C(=O)C2CCCC2)c2ccc(F)cc23)CC1 [compound 17] as the molecule, how does the Emax [1, 3] read?
Answer: < 65%

Question: And the “M1 Activity” value [1, 4]?
Answer: ++ (activity was measured to be between 0.7 μM and 3.0 μM)

Question: And the Emax [2, 3]?
Answer: 55 to 70%

Question: And the “M4 Activity” value [2, 5]?
Answer: ++ (activity was measured to be between 0.1 μM and 4.0 μM)

Question: What does the source list for COC(=O)N1CCC(CN2CCC3(CC2)CN(C(C)=O)c2ccc(C)cc23)CC1 [compound 423]?
Answer: M1 Activity ([1]; compound nos. 1-454): ++ (activity was measured to be between 0.7 μM and 3.0 μM); Emax [1, 3]: < 65%; M4 Activity ([2]; compound nos. 1-454): + (activity was measured to be greater than or equal to 4.0 μM); Emax [2, 3]: < 55%

Question: Which results are given for CCOC(=O)N1C2CCC1CC(N1CCC3(CC1)CN(C(=O)Nc1ccc(F)cc1)c1ccc(F)cc13)C2 (centres unmarked) [compound 197]?
Answer: Emax [1, 3]: < 65%; M1 Activity [1, 4]: ++ (activity was measured to be between 0.7 μM and 3.0 μM); Emax [2, 3]: < 55%; M4 Activity [2, 5]: + (activity was measured to be greater than or equal to 4.0 μM)

Question: Which results are given for CC(=O)NC1CC2(CCN(C[C@H]3C[C@H]4C=C[C@H]3C4)CC2)c2ccccc21 (some centres unmarked) [compound 213]?
Answer: Emax [1, 3]: 65 to 85%; M1 Activity [1, 4]: ++ (activity was measured to be between 0.7 μM and 3.0 μM); Emax [2, 3]: < 55%; M4 Activity [2, 5]: + (activity was measured to be greater than or equal to 4.0 μM)

Question: With CC(=O)N1CC2(CCN(C3CCN(C(=O)OCCF)C3)CC2)c2cc(F)ccc21 (centres unmarked) [compound 394] as the molecule, how does the “M1 Activity” value ([1]; compound nos. 1-454) read?
Answer: +++ (activity was measured to be less than or equal to 0.7 μM)

Question: What about the Emax [1, 3] of the same molecule?
Answer: < 65%

Question: And the “M4 Activity” value ([2]; compound nos. 1-454)?
Answer: ++ (activity was measured to be between 0.1 μM and 4.0 μM)

Question: And the Emax [2, 3]?
Answer: < 55%

Question: With O=C1CC2(CCN(C3CCCCCC3)CC2)c2ccccc2N1 [compound 242] as the molecule, how does the Emax [1, 3] read?
Answer: 65 to 85%

Question: And the “M1 Activity” value [1, 4]?
Answer: +++ (activity was measured to be less than or equal to 0.7 μM)

Question: What about the Emax [2, 3] of the same molecule?
Answer: > 70%

Question: And the “M4 Activity” value [2, 5]?
Answer: ++ (activity was measured to be between 0.1 μM and 4.0 μM)

Question: With CCOC(=O)N1CCC(N2CCC3(CC2)CN(C(=O)OC(C)C)c2ccc(F)cc23)CC1 [compound 145] as the molecule, how does the Emax [1, 3] read?
Answer: > 85%

Question: And the “M1 Activity” value [1, 4]?
Answer: +++ (activity was measured to be less than or equal to 0.7 μM)

Question: And the Emax [2, 3]?
Answer: > 70%

Question: And the “M4 Activity” value [2, 5]?
Answer: + (activity was measured to be greater than or equal to 4.0 μM)

Question: How did the Emax [1, 6] turn out when CN(C)C(=O)N1CC2(CCN(C3CCN(c4nccs4)CC3)CC2)c2ccccc21 [compound 504] was run?
Answer: 25 to 100%

Question: And the “M1 Activity” value ([1]; compounds 455-509)?
Answer: + (activity was measured to be greater than or equal to 5.0 μM)

Question: What about the Emax [2, 6] of the same molecule?
Answer: 25 to 100%

Question: And the “M4 Activity” value ([2]; compounds 455-509)?
Answer: ++ (activity was measured to be between 2.0 μM and 5.0 μM)

Question: Which Emax [1, 3] does the source give for CC(=O)NC1CC2(CCN(C3CCCCC3)CC2)c2ccccc21 (centres unmarked) [compound 2] here?
Answer: < 65%

Question: And the “M1 Activity” value [1, 4]?
Answer: + (activity was measured to be greater than or equal to 3.0 μM)

Question: What about the Emax [2, 3] of the same molecule?
Answer: < 55%

Question: And the “M4 Activity” value [2, 5]?
Answer: + (activity was measured to be greater than or equal to 4.0 μM)

Question: For O=C(C1CC1)N1CC2(CCN(C3CC4CCC(C3)N4C(=O)O[C@H]3CCOC3)CC2)c2cc(F)ccc21 (some centres unmarked) [compound 57], which Emax [1, 3] is on record?
Answer: 65 to 85%

Question: And the “M1 Activity” value [1, 4]?
Answer: +++ (activity was measured to be less than or equal to 0.7 μM)

Question: And the Emax [2, 3]?
Answer: 55 to 70%

Question: What about the “M4 Activity” value [2, 5] of the same molecule?
Answer: +++ (activity was measured to be less than or equal to 0.1 μM)

Question: For CCOC(=O)N1C2CCC1CC(N1CCC3(CC1)CN(C(C)=O)c1ccc(F)cc13)C2 (centres unmarked) [compound 371], which Emax [1, 3] is on record?
Answer: 65 to 85%

Question: And the “M1 Activity” value [1, 4]?
Answer: +++ (activity was measured to be less than or equal to 0.7 μM)

Question: What about the Emax [2, 3] of the same molecule?
Answer: > 70%

Question: What about the “M4 Activity” value [2, 5] of the same molecule?
Answer: + (activity was measured to be greater than or equal to 4.0 μM)
